Experimental data: US6133287A, “Piperidine-indole compounds having 5-HT6 affinity” (Allelix Biopharmaceuticals Inc., priority 1998, dated 2000)
Structures can show the parent of a compound that is named as a salt. Where two headings read alike, the source gives them in different places.

Tests used:
human 5-HT6 receptor [1] = biological target: T1, human 5-HT6 receptor (Homo sapiens, UniProt P50406); experiment: Effect of compounds on the cAMP response of human 5-HT6 receptors (stably transfected HEK293 cells, cAMP EIA); format: cell-based; parameters: expressed in transfected cells; host or cells: HEK293
T1 sequence (P50406 whole entry): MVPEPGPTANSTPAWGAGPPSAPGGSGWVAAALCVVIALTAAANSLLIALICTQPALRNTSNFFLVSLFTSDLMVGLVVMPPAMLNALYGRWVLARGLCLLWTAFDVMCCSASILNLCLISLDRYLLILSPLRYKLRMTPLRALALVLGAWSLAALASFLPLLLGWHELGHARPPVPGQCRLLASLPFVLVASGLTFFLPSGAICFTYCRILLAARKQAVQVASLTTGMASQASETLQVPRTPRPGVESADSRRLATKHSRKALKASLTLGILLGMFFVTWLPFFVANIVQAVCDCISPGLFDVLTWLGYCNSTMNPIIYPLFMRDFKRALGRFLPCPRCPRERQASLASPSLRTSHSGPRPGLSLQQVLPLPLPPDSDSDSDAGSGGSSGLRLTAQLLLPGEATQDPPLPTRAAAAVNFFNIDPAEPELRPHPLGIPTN
Method: The antagonist (or agonist ) property of compounds for human 5-HT6 receptors was determined by testing their effect on cAMP accumulation in stably transfected HEK293 cells.
Human 5-HT6 receptors were cloned and stably expressed in HEK293 cells. These cells were plated in 6 well plates in DMEM/F12 media with 10% fetal calf serum (FCS) and 500 μg/mL G418 and incubated at 37° C. in a CO2 incubator. The cells were allowed to grow to about 70% confluence before initiation of the experiment.
On the day of the experiment, the culture media was removed, and the cells were washed once with serum free medium (SFM). Two mL of SFM+IBMX media was added and incubated at 37° C. for 10 min. The media were removed and fresh SFM+IBMX media containing various compounds, and 1 μM serotonin (as antagonist) were added to the appropriate wells and incubated for 30 min. […]
cAMP content was determined by EIA (enzyme-immunoassay) using the Amersham Biotrak cAMP EIA kit (Amersham RPN 225). […] Briefly, cAMP is determined by the competition between unlabeled cAMP and a fixed quantity of peroxidase-labelled cAMP for the binding sites on anti-cAMP antibody. […] The reaction is stopped by the addition of 100 μL 1.0 M sulfuric acid and the resultant color read by a microtitre plate spectrophotometer at 450 nM within 30 minutes. […]

human 5-HT7 receptor = human 5-HT7 receptor (Homo sapiens, UniProt P34969); experiment: Selectivity of binding to the human 5-HT6 receptor relative to the human 5-HT7 receptor; details: 5-HT6 vs 5-HT7
human 5-HT7 receptor, sequence (P34969 whole entry): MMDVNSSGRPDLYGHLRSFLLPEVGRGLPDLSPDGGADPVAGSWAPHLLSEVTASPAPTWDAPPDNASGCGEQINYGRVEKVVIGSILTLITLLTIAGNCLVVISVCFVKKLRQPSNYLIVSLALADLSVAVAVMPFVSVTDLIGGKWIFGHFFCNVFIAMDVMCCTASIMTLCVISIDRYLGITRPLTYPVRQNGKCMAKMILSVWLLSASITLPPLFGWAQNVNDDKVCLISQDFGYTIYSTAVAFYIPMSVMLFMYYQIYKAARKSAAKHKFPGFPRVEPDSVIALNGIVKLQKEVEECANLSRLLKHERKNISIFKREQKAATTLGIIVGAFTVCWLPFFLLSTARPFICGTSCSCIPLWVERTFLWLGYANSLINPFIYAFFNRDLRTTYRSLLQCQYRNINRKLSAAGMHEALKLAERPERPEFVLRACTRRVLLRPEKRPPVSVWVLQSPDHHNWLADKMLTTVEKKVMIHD

human 5-HT2c receptor = biological target: T2, human 5-HT2c receptor (Homo sapiens, UniProt P28335); experiment: Selectivity of binding to the human 5-HT6 receptor relative to the human 5-HT2c receptor; details: 5-HT6 vs 5-HT2c
T2 sequence (P28335 33-458): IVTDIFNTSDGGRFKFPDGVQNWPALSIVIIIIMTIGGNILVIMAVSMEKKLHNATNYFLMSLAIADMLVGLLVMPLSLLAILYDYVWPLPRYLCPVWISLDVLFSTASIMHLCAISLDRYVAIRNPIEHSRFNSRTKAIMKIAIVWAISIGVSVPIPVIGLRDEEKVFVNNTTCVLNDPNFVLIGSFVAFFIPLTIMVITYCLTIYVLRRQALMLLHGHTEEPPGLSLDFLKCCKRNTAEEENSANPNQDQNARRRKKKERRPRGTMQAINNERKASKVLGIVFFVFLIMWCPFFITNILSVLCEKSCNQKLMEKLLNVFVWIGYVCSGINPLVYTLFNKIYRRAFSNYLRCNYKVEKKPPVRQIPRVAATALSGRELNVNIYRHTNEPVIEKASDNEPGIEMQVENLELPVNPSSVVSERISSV
Method: (§1) All of the compounds of the invention were evaluated using cell types receptive specifically to the 5-HT6 receptor (for cloning and characterization of the human 5-HT6 receptor see Kohen, et al. J. Neurochemistry, 66, 1996: 47-56). […] After a 60 minute incubation at 37° C., the incubation was terminated by vacuum filtration. The filters were washed with buffer and the filters were counted for radioactivity using liquid scintillation spectrometry. The affinity of the test compound for the 5-HT6 receptor was determined by computer-assisted analysis of the data and determining the amount of the compound necessary to inhibit 50% of the binding of the radioligand to the receptor. Concentrations ranging from 10^-11 M to 10^-5 M of the test compound were evaluated.

human 5-HT6 receptor [2] = biological target: T1, human 5-HT6 receptor; experiment: Binding affinity for the 5-HT6 receptor (3H-LSD radioligand binding, membranes of cells expressing the receptor); parameters: expressed in transfected cells; details: 60 minute incubation at 37° C.
Method: as §1

SMILES	Ki (human 5-HT6 receptor [2]; Ki) [nM]	also measured
CN1CC=C(c2cn(S(=O)(=O)c3ccc(F)cc3)c3ccc(F)cc23)CC1 [6 cc]		EC50 (human 5-HT6 receptor [1]; read-out: EC50, concentration causing 50% inhibition of the serotonin-stimulated cAMP response, 1 μM serotonin, 30 min): 10 nM
CN1CCC(c2c[nH]c3cc(Cl)ccc23)CC1 [Example 5b, 6-Chloro-3-(1-methyl-4-piperidinyl)-1H-indole]		EC50 (human 5-HT6 receptor [1]; 1 μM serotonin, 30 min, read-out: EC50, concentration causing 50% inhibition of the serotonin-stimulated cAMP response): 1900 nM
Cc1ccc(S(=O)(=O)n2cc(C3=CCN(C)CC3)c3cc(F)ccc32)cc1 [Example 6b, 5-Fluoro-1-(4-methylphenylsulfonyl)-3-(1-methyl-1,2,3,6-tetrahydro-4-pyridinyl)indole]		greater affinity for human 5-HT6 receptor relative to human 5-HT7 receptor (human 5-HT7 receptor): ≥ 60 fold; greater affinity for human 5-HT6 receptor relative to human 5-HT2c receptor (human 5-HT2c receptor): ≥ 60 fold
CN1CC=C(c2cn(C(=O)c3ccccc3Cl)c3ccc(F)cc23)CC1 [Example 6c, 1-(2-Chlorobenzoyl)-5-fluoro-3-(1-methyl-1,2,3,6-tetrahydro-4-pyridinyl)indole]	≤ 5	
CN1CC=C(c2cn(C(=O)c3c(Cl)cccc3Cl)c3ccc(F)cc23)CC1 [Example 6f, 1-(2,6-Dichlorobenzoyl)-5-fluoro-3-(1-methyl-1,2,3,6-tetrahydro-4-pyridinyl)indole]	≤ 5	
CN1CC=C(c2cn(C(=O)c3ccccc3)c3ccc(Br)cc23)CC1 [Example 6g, 1-Benzoyl-5-bromo-3-(1-methyl-1,2,3,6-tetrahydro-4-pyridinyl)indole]	≤ 50	greater affinity for human 5-HT6 receptor relative to human 5-HT7 receptor (human 5-HT7 receptor): ≥ 60 fold; greater affinity for human 5-HT6 receptor relative to human 5-HT2c receptor (human 5-HT2c receptor): ≥ 60 fold
CN1CC=C(c2cn(C(=O)c3ccccc3Cl)c3ccc(OC4CCCCC4)cc23)CC1 [Example 7aaa, 1-(2-Chlorobenzoyl)-5-cyclohexyloxy-3-(1-methyl-1,2,3,6-tetrahydro-4-pyridinyl) indole]	≤ 5	
CN1CC=C(c2cn(S(=O)(=O)c3ccccc3)c3c(F)cc(F)cc23)CC1 [Example 7aj, 5,7-Difluoro-3-(1-methyl-1,2,3,6-tetrahydro-4-pyridinyl)-1-phenylsulfonylindole]	≤ 5	
CN1CC=C(c2cn(S(=O)(=O)c3ccc(Br)cc3)c3c(F)cc(F)cc23)CC1 [Example 7am, 1-(4-Bromophenylsulfonyl)-5,7-difluoro-3-(1-methyl-1,2,3,6-tetrahydro-4-pyridinyl)indole]	≤ 5	
CN1CC=C(c2cn(S(=O)(=O)c3ccc4ccccc4c3)c3c(F)cc(F)cc23)CC1 [Example 7ap, 5,7-Difluoro-3-(1-methyl-1,2,3,6-tetrahydro-4-pyridinyl)-1-(2-naphthylsulfonyl)indole]	≤ 5	
CN1CC=C(c2cn(C(=O)c3ccc(F)cc3)c3c(F)cc(F)cc23)CC1 [Example 7ar, 5,7-Difluoro-1-(4-fluorobenzoyl)-3-(1-methyl-1,2,3,6-tetrahydro-4-pyridinyl)indole]	≤ 5	
CN1CC=C(c2cn(C(=O)c3cc(Cl)ccc3Cl)c3c(F)cc(F)cc23)CC1 [Example 7as, 1-(2,5-Dichlorobenzoyl)-5,7-difluoro-3-(1-methyl-1,2,3,6-tetrahydro-4-pyridinyl)indole]	≤ 50	
CN1CC=C(c2cn(S(=O)(=O)c3ccccc3Br)c3ccc(F)cc23)CC1 [Example 7bb, 1-(2-Bromophenylsulfonyl)-5-fluoro-3-(1-methyl-1,2,3,6-tetrahydro-4-pyridinyl)indole]		greater affinity for human 5-HT6 receptor relative to human 5-HT7 receptor (human 5-HT7 receptor): ≥ 60 fold; greater affinity for human 5-HT6 receptor relative to human 5-HT2c receptor (human 5-HT2c receptor): ≥ 60 fold
CN1CC=C(c2cn(S(=O)(=O)c3ccc(F)cc3)c3ccc(F)cc23)CC1 [Example 7cc, 1-(4-Fluorophenylsulfonyl)-5-fluoro-3-(1-methyl-1,2,3,6-tetrahydro-4-pyridinyl)indole]	≤ 5	
CN1CC=C(c2cn(S(=O)(=O)c3ccc(Cl)cc3)c3ccc(F)cc23)CC1 [Example 7dd, 1-(4-Chlorophenylsulfonyl)-5-fluoro-3-(1-methyl-1,2,3,6-tetrahydro-4-pyridinyl)indole]		greater affinity for human 5-HT6 receptor relative to human 5-HT7 receptor (human 5-HT7 receptor): ≥ 60 fold; greater affinity for human 5-HT6 receptor relative to human 5-HT2c receptor (human 5-HT2c receptor): ≥ 60 fold
CN1CC=C(c2cn(S(=O)(=O)c3cccc4ccccc34)c3ccc(F)cc23)CC1 [Example 7gg, 5-Fluoro-3-(1-methyl-1,2,3,6-tetrahydro-4-pyridinyl)-1-(1-naphthylsulfonyl)indole]	≤ 50	
CN1CC=C(c2cn(S(=O)(=O)c3ccc4ccccc4c3)c3ccc(F)cc23)CC1 [Example 7hh, 5-Fluoro-3-(1-methyl-1,2,3,6-tetrahydro-4-pyridinyl)-1-(2-naphthylsulfonyl)indole]		greater affinity for human 5-HT6 receptor relative to human 5-HT7 receptor (human 5-HT7 receptor): ≥ 60 fold; greater affinity for human 5-HT6 receptor relative to human 5-HT2c receptor (human 5-HT2c receptor): ≥ 60 fold
Cc1ccc(S(=O)(=O)n2cc(C3=CCN(C)CC3)c3cc(OC4CCCCC4)ccc32)cc1 [Example 7i, 5-Cyclohexyloxy-1-(4-methylphenylsulfonyl)-3-(1-methyl-1,2,3,6-tetrahydro-4-pyridinyl)indole]		greater affinity for human 5-HT6 receptor relative to human 5-HT7 receptor (human 5-HT7 receptor): ≥ 60 fold; greater affinity for human 5-HT6 receptor relative to human 5-HT2c receptor (human 5-HT2c receptor): ≥ 60 fold
CN1CC=C(c2cn(S(=O)(=O)c3ccccc3)c3ccc(F)cc23)CC1 [Example 7ii, 5-Fluoro-3-(1-methyl-1,2,3,6-tetrahydro-4-pyridinyl)-1-phenylsulfonylindole]	≤ 5	
CN1CC=C(c2cn(S(=O)(=O)c3ccccc3)c3cc(Br)ccc23)CC1 [Example 7j, 6-Bromo-3-(1-methyl-1,2,3,6-tetrahydro-4-pyridinyl)-1-phenylsulfonylindole]	≤ 50	
CN1CC=C(c2cn(S(=O)(=O)c3ccccc3)c3ccc(Cl)cc23)CC1 [Example 7jj, 5-Chloro-3-(1-methyl-1,2,3,6-tetrahydro-4-pyridinyl)-1-phenylsulfonylindole]	≤ 5	
CN1CC=C(c2cn(C(=O)c3ccccc3)c3ccc(Cl)cc23)CC1 [Example 7jjj, 1-Benzoyl-5-chloro-3-(1-methyl-1,2,3,6-tetrahydro-4-pyridinyl)indole hydrochloride]	≤ 50	
CN1CC=C(c2cn(S(=O)(=O)c3ccccc3)c3ccc(OC4CCCCC4)cc23)CC1 [Example 7m, 5-Cyclohexyloxy-3-(1-methyl-1,2,3,6-tetrahydro-4-pyridinyl)-1-phenylsulfonylindole]	≤ 50	
CN1CC=C(c2cn(C(=O)c3c(Cl)cccc3Cl)c3ccc(C(F)(F)F)cc23)CC1 [Example 7qqq, 1-(2,6-Dichlorobenzoyl)-3-(1-methyl-1,2,3,6-tetrahydro-4-pyridinyl)-5-trifluoromethyl-indole]	≤ 50	
CN1CC=C(c2cn(S(=O)(=O)c3ccccc3)c3ccc(C(F)(F)F)cc23)CC1 [Example 7rr, 3-(1-Methyl-1,2,3,6-tetrahydro-4-pyridinyl)-1-phenylsulfonyl-5-trifluoromethylindole hydrochloride]	≤ 5	
CN1CCC(c2cn(S(=O)(=O)c3ccccc3)c3ccccc23)CC1 [Example 7uuu, 3-(1-Methyl-4-piperidinyl)-1-phenylsulfonylindole]		Ki (human 5-HT6 receptor [2]; read-out: Ki): ≤ 50 nM
COc1ccc(S(=O)(=O)n2cc(C3=CCN(C)CC3)c3cc(C(F)(F)F)ccc32)cc1 [Example 7vv, 1-(4-Methoxyphenylsulfonyl)-3-(1-methyl-1,2,3,6-tetrahydro-4-pyridinyl)-5-trifluoromethylindole hydrochloride]	≤ 50	
